Laboratory results from patent publication US8460685B2, “Method of improving the osteoinductivity of calcium phosphate” (Progentix Orthobiology B.V., priority 2005, dated 2013).

How the values were obtained:
[1] = test system: dorsal muscles of goats; assay: Osteoinductive potential of TCP ceramic loaded with lithium chloride, intramuscular implantation in goats (histology, histomorphometry); type: in vivo; conditions: LiCl in TCP; improved osteoinductivity
Method: The osteoinductive potential of TCP ceramic loaded with lithium chloride was tested in a pilot study in muscle of goats. After sterilization (autoclaving at 121° C. for 30 minutes), a volume of 1.0 cc of 1-3 mm ceramic particles (granules) of each TCP-only, TCP with 5 mmol LiCl/100 g, TCP with 15 mmol LiCl/100 g and TCP with 45 mmol LiCl/100 g were implanted in dorsal muscles of 4 goats for 12 weeks (total 4 implants in each of 4 goats).
(§1) Twelve weeks after implantation the animals Were sacrificed and the implants were harvested with surrounding tissues and fixed in 1.5% glutaraldehyde in 0.14M cacodylate buffer. The fixed samples were dehydrated in a graded series of aqueous ethanol solutions (70%, 80%, 90%, 96% and 100%×2) and finally embedded in MMA. Non-decalcified sections (10-20 μm) were prepared and stained with methylene blue and basic fuchsin for histological observation and histomorphometrical analysis regarding bone formation.
Histomorphometry was performed on the sections across the middle of the implants with regard to the percentage of the formed bone in the available space.

[2] = test system: dorsal muscles of goats; assay: Osteoinductive potential of sodium fluoride-loaded TCP ceramic, intramuscular implantation in goats (histology, histomorphometry); type: in vivo; conditions: NaF in TCP; improved osteoinductivity
Method: The osteoinductive potential of sodium fluoride-loaded TCP ceramic was tested in a pilot study in muscles of goats. After sterilization (autoclaving at 121° C. for 30 minutes), a volume of 1.0 cc of 1-3 mm ceramic particles (granules) of each TCP-only, TCP with 8 mmol NaF/100 g, TCP with 16 mmol NaF/100 g and TCP with 24 mmol NaF/100 g were implanted in dorsal muscles of 4 goats for 12 weeks (total 4 implants in each of 4 goats).
as §1, with “were” for “Were”, “methyl methacrylate (MMA). Using standard procedures non-decalcified” for “MMA. Non-decalcified”, “made” for “prepared”
Histomorphometry was performed on the sections across the middle of the implants and to the percentage of the formed bone in the available space was measured using image analysis.

SMILES | effective amount of trace element in TCP [1] | optimum amount of trace element in TCP [1] | effective amount of trace element in TCP [2] | optimum amount of trace element in TCP [2]
[Cl-].[Li+] [LiCl, lithium chloride] | 5-45 mmol LiCl/100 g | around 15 mmol LiCl/100 g TCP |  | 
[F-].[Na+] [NaF, sodium fluoride] |  |  | 8-24 mmol NaF/100 g | around 16 mmol NaF/100 g TCP
